Experimental data as given in patent publication US12310944B2 (priority 2019, dated 2025).
Like-named read-outs stand apart in the source and are kept apart here.

What was measured:
[1] = target: T1, eqBuChE (BuChE, E.C.3.1.1.8, selected from horse serum) (Equus caballus, UniProt P81908); assay: Cholinesterase inhibitory activity (DTNB/BTC), eqBuChE; assay type: biochemical
T1 construct: BuChE (E.C.3.1.1.8, selected from horse serum); purchased Sigma; host or cells: horse serum
Source text: Determination of Cholinesterase Inhibitory Activity:
Drugs and reagents: Test compounds, AChE (E.C.3.1.1.7, Type VI-S, selected from electric eel), BuChE (E.C.3.1.1.8, selected from horse serum), 5,5′-dithiobis(2-nitrobenzoic acid) (DTNB), acetylthiocholine (ATC) iodide and butyrylthiocholine (BTC) iodide were all purchased from Sigma; the positive control tacrine hydrochloride (9-amino-1,2,3,4-tetrahydroacridine hydrochloride hydrate) was purchased from BioTrend.
(§1) Instrument: THERMO Varioskan Flash full-wavelength multifunctional microplate reader.
(1) Formulation of buffer: 13.6 g of potassium dihydrogen phosphate was dissolved in 1 L of water, and pH was adjusted with potassium hydroxide to reach pH=8±0.1. The solution was stored at 4° C. for later use.
(2) Formulation of 0.01 M DTNB solution: 0.396 g of DTNB and 0.15 g of sodium bicarbonate were dissolved in 100 mL of water to prepare a 0.01 M DTNB solution, which was stored at −30° C. for later use.
(3) Formulation of 0.075 M ATC and BTC solutions: 0.217 g of ATC was dissolved in 10 mL of water to prepare a 0.075 M ATC solution, which was stored at −30° C. for later use; 0.237 g of BTC was dissolved in 10 mL of water to prepare a 0.075 M BTC solution, which was stored at −30° C. for later use.
(4) Formulation of AChE and BuChE solutions: 5,000 units of AChE were dissolved in 1 mL of 1% gel solution, and then diluted to 100 mL with water to prepare a AChE solution with a concentration of 5 units/mL, which was stored at −30° C. for later use; 5,000 units of BuChE were dissolved in 1 mL of 1% gel solution, and then diluted to 100 mL with water to prepare a BuChE solution with a concentration of 5 units/mL, which was stored at −30° C. for later use.
(5) Formulation of test substance solution: The test compound was dissolved in ethanol to obtain a solution with a concentration of 10^−3 M (ethanol would not affect the test results), and then diluted with water to prepare solutions with concentrations of […], 10^−5, 10^−6, 10^−7, 10^−8, 10^−9, and 10^−10 M, respectively.
Before the start of the experiment, all the solutions as used were warmed to room temperature, and the AChE and BuChE solutions were diluted 1-fold with water to prepare an enzyme solution with a concentration of 2.5 units/mL. The background UV absorbance was measured with a blank buffer (3 mL) as a subtraction value. Firstly, 100 μL of test compound solution, 100 μL of DTNB solution, and 100 μL of enzyme solution were added to 3 mL of buffer. After adding 20 μL of ATC or BTC solution to trigger the reaction, the time was recorded immediately and the test solution was mixted quickly and uniformly at the same time. After 2 minutes, the UV absorbance was measured at a wavelength of […]. The blank control group was measured with an equal volume of water instead of the test substance solution. All tests were performed three times in parallel. The UV absorption value of the blank control group was taken as 100%, the absorbance (OD value) of the test compound at each concentration was recorded, and GraphPad Prism™ (GraphPad Software, San Diego, CA, USA) software was used to analyze the results in a non-linear regression analysis model to calculate the corresponding IC50 values, as shown in Table 1.

[2] = target: hBuChE (Homo sapiens, UniProt P06276); assay: Cholinesterase inhibitory activity (DTNB/BTC), hBuChE; assay type: biochemical; conditions: mean ± SEM
[3] = system: PC-12 neural cell line; assay: Toxicity test in PC-12 nerve cell (MTT); assay type: cell-based; conditions: PC-12 cells; for SR(%) cell survival rate, 20 μM: 20 μM compound for 24 h; for SR(%) cell survival rate, 50 μM: 50 μM compound for 24 h
Description: Toxicity Test in PC-12 Nerve Cell:
Drugs and reagents: Test compounds, DMEM medium (01-050-1A) purchased from Biological Industries, FBS fetal bovine serum (04-001-1A) purchased from Biological Industries, MTT thiazolyl blue reagent (KGT525500) purchased from KeyGEN BioTECH.
as §1
About 3×10^3 PC-12 cells were evenly mixed in 0.1 mL of DMEM medium containing 10% FBS, and plated on a 96-well bottom plate, and incubated overnight at 37° C. in an environment containing 5% CO2. The 20 μM and 50 μM compounds diluted in 0.1 mL of DMEM medium were treated on the cells for 24 hours. Then MTT reagent was added to the well plate, and the plate was incubated at 37° C. for 2 to 4 hours. The color reaction was measured at 492 nm using a spectrophotometer (Thermo, multiskan FC).

[4] = eqBuChE, mean ± SEM, three parallel tests
[5] = read-out: IC50 (nM) ± SEM eqBuChE

T1 sequence (P81908 whole entry): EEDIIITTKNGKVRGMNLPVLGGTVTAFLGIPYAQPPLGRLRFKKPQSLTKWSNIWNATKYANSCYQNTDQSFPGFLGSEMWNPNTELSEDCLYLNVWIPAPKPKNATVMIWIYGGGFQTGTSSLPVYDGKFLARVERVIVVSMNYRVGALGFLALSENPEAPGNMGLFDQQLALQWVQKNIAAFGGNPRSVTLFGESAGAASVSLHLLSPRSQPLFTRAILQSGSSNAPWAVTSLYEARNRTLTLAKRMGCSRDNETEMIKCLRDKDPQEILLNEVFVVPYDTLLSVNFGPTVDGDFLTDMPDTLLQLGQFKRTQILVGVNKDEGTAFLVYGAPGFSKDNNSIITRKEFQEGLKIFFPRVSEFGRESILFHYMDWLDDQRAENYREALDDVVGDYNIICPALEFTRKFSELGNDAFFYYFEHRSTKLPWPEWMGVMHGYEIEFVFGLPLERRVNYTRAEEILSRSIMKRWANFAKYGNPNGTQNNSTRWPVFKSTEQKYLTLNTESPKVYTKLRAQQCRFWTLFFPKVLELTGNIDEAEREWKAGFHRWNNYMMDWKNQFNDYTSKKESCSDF

In the case of CCN(CC)Cc1ccccc1CNC(=O)c1cccc(NC(=O)c2cccs2)c1 [Compound 1, N-(3-((2-((diethylamino)methyl)benzyl)carbamoyl)phenyl)thiophene-2-carboxamide], the IC50 [1, 4] is reported as 0.13 ± 0.01 nM, the IC50 [2] is reported as 0.42 ± 0.07 nM and the “SR(%) cell survival rate, 20 μM” value [3] is reported as 97.36%. The “SR(%) cell survival rate, 50 μM” value [3] was 84.34%.
With CN(C)Cc1ccccc1NC(=O)c1cccc(NC(=O)c2cccs2)c1 [Compound 2, N-(3-((2-((dimethylamino)methyl)phenyl)carbamoyl)phenyl)thiophene-2-carboxamide] the IC50 [1, 4] was 1910 ± 983 nM, the “SR(%) cell survival rate, 20 μM” value [3] was 94.30% and the “SR(%) cell survival rate, 50 μM” value [3] was 91.45%.
CCN(CC)Cc1ccccc1NC(=O)c1cccc(NC(=O)c2cccs2)c1 [Compound 3, N-(3-((2-((diethylamino)methyl)phenyl)carbamoyl)phenyl)thiophene-2-carboxamide] was tested, and the IC50 [1, 4] was 481 ± 110 nM, the “SR(%) cell survival rate, 20 μM” value [3] was 95.23% and the “SR(%) cell survival rate, 50 μM” value [3] was 89.64%.
With CCCN(CCC)Cc1ccccc1NC(=O)c1cccc(NC(=O)c2cccs2)c1 [Compound 4, N-(3-((2-((dipropylamino)methyl)phenyl)carbamoyl)phenyl)thiophene-2-carboxamide] the IC50 [1, 5] was 122 ± 285 nM, the “SR(%) cell survival rate, 20 μM” value [3] was 87.24% and the “SR(%) cell survival rate, 50 μM” value [3] was 79.48%.
CCN(CC)Cc1ccccc1CNC(=O)c1cccc(NC(=O)c2ccc[nH]2)c1 [Compound 5, N-(3-((2-((diethylamino)methyl)benzyl)carbamoyl)phenyl)-pyrrole-2-carboxamide] was tested, and the IC50 [1, 5] was 0.87 ± 0.03 nM, the IC50 [2] was 2.99 ± 0.67 nM and the “SR(%) cell survival rate, 20 μM” value [3] was 97.53%. The “SR(%) cell survival rate, 50 μM” value [3] was 92.47%.
CCN(CC)Cc1ccccc1CNC(=O)c1cccc(NC(=O)c2ccco2)c1 [Compound 6, N-(3-((2-((diethylamino)methyl)benzyl)carbamoyl)phenyl)furan-2-carboxamide] was tested, and the IC50 [1, 4] was 0.79 ± 0.09 nM, the IC50 [2] was 0.63 ± 0.13 nM and the “SR(%) cell survival rate, 20 μM” value [3] was 95.37%. For the same compound, the “SR(%) cell survival rate, 50 μM” value [3] was 81.46%.
With CCN(CC)Cc1ccccc1CNC(=O)c1cccc(NC(=O)c2ccccn2)c1 [Compound 7, N-(3-((2-((diethylamino)methyl)benzyl)carbamoyl)phenyl)-pyridineamide] the IC50 [1, 5] was 0.34 ± 0.02 nM, the IC50 [2] was 0.78 ± 0.63 nM and the “SR(%) cell survival rate, 20 μM” value [3] was 92.36%. For the same compound, the “SR(%) cell survival rate, 50 μM” value [3] was 75.46%.
In the case of CCN(CC)Cc1ccccc1CNC(=O)c1cccc(NC(=O)c2nccs2)c1 [Compound 8, N-(3-((2-((diethylamino)methyl)benzyl)carbamoyl)phenyl)-thiazole-2-carboxamide], the IC50 [1, 5] is reported as 0.75 ± 0.14 nM, the IC50 [2] is reported as 1.88 ± 0.52 nM and the “SR(%) cell survival rate, 20 μM” value [3] is reported as 93.57%. For the same compound, the “SR(%) cell survival rate, 50 μM” value [3] was 89.42%.
With CCN(CC)Cc1ccccc1CNC(=O)c1cccc(NC(=O)c2ncc[nH]2)c1 [Compound 9, N-(3-((2-((diethylamino)methyl)benzyl)carbamoyl)phenyl)-imidazole-2-carboxamide] the IC50 [1, 5] was 0.52 ± 0.1 nM, the IC50 [2] was 1.91 ± 0.24 nM and the “SR(%) cell survival rate, 20 μM” value [3] was 80.36%. The “SR(%) cell survival rate, 50 μM” value [3] was 70.74%.
For CCN(CC)Cc1ccccc1CNC(=O)c1cccc(NC(=O)C2CCCCC2)c1 [Compound 10, 3-(cyclohexanecarboxamido)-N-(2-((diethylamino)methyl)benzyl)benzamide], the IC50 [1, 5] was 122 ± 15.4 nM, the “SR(%) cell survival rate, 20 μM” value [3] was 90.23% and the “SR(%) cell survival rate, 50 μM” value [3] was 83.22%.
In the case of CCN(CC)Cc1ccccc1CNC(=O)c1cccc(NC(=O)c2ccccc2)c1 [Compound 11, 3-benzamido-N-(2-((diethylamino)methyl)benzyl)benzamide], the IC50 [1, 5] is reported as 0.48 ± 0.07 nM, the IC50 [2] is reported as 0.99 ± 0.18 nM and the “SR(%) cell survival rate, 20 μM” value [3] is reported as 96.30%. The “SR(%) cell survival rate, 50 μM” value [3] was 83.4%.
In the case of CCN(CC)Cc1ccccc1CNC(=O)c1cccc(NC(=O)c2ccc(O)cc2)c1 [Compound 12, N-(2-((diethylamino)methyl)benzyl)-3-(4-hydroxybenzamido)benzamide], the IC50 [1, 5] is reported as 0.79 ± 0.19 nM, the IC50 [2] is reported as 2.45 ± 0.37 nM and the “SR(%) cell survival rate, 20 μM” value [3] is reported as 91.46%. For the same compound, the “SR(%) cell survival rate, 50 μM” value [3] was 89.64%.
In the case of CCN(CC)Cc1ccccc1CNC(=O)c1cccc(NC(=O)c2ccc(C(=O)O)cc2)c1 [Compound 13, 4-((3-((2-((diethylamino)methyl)benzyl)carbamoyl)phenyl)carbamoyl)benzoic acid], the IC50 [1, 5] is reported as 0.76 ± 0.09 nM, the IC50 [2] is reported as 3.4 ± 0.31 nM and the “SR(%) cell survival rate, 20 μM” value [3] is reported as 91.46%. For the same compound, the “SR(%) cell survival rate, 50 μM” value [3] was 75.25%.
With CCN(CC)Cc1ccccc1CNC(=O)c1cccc(NC(=O)c2ccc(C=O)cc2)c1 [Compound 14, N-(2-((diethylamino)methyl)benzyl)-3-(4-formanilide)benzamide] the IC50 [1, 5] was 0.89 ± 0.63 nM, the IC50 [2] was 2.09 ± 0.99 nM and the “SR(%) cell survival rate, 20 μM” value [3] was 86.34%. The “SR(%) cell survival rate, 50 μM” value [3] was 81.34%.
For CCN(CC)Cc1ccccc1CNC(=O)c1cccc(NC(=O)c2ccc(F)cc2)c1 [Compound 15, N-(2-((diethylamino)methyl)benzyl)-3-(4-fluorobenzamido)benzamide], the IC50 [1, 4] was 0.15 ± 0.06 nM, the IC50 [2] was 1.44 ± 1.66 nM and the “SR(%) cell survival rate, 20 μM” value [3] was 93.57%. For the same compound, the “SR(%) cell survival rate, 50 μM” value [3] was 84.35%.
For CCN(CC)Cc1ccccc1CNC(=O)c1cccc(NC(=O)c2ccc(F)c(F)c2)c1 [Compound 16], the IC50 [1, 5] was 0.3 ± 0.07 nM, the IC50 [2] was 0.57 ± 0.1 nM and the “SR(%) cell survival rate, 20 μM” value [3] was 95.72%. For the same compound, the “SR(%) cell survival rate, 50 μM” value [3] was 89.53%.
In the case of CCN(CC)Cc1ccccc1CNC(=O)c1cccc(NC(=O)c2cccc(F)c2)c1 [Compound 17, N-(2-((diethylamino)methyl)benzyl)-3-(3-fluorobenzamido)benzamide], the IC50 [1, 4] is reported as 4.55 ± 0.74 nM, the IC50 [2] is reported as 25.2 ± 19.1 nM and the “SR(%) cell survival rate, 20 μM” value [3] is reported as 98.40%. The “SR(%) cell survival rate, 50 μM” value [3] was 89.75%.
For O=C(NCc1ccccc1)c1cccc(NC(=O)c2cccs2)c1 [Compound 36], the inhibition at 10 µM ([1]; read-out: inhibition rate of the compound on the target at a concentration of 10 μM (eqBuChE)) was 27.2%, the “SR(%) cell survival rate, 20 μM” value [3] was 89.57% and the “SR(%) cell survival rate, 50 μM” value [3] was 77.42%.
